Literature values in patent publication US20050025807A1, “Cured porous calcium phosphate material and uses thereof” (NATIONAL INSTITUTE OF ADVANCED INDUSTRIAL SCIENCE AND …, priority 2003, published 2005).

Details: agitation 200 to 300 rpm at 30° C.; calculated by Nernst-Noyes-Whitney formula

In the case of CCC1(c2ccccc2)C(=O)NC(=O)NC1=O [phenobarbitol], the “Thickness of diffusion layer” value is listed as “about 30 microns”.
